From publication PMC8405463, “Development of a method for assessing the accumulation and metabolization of antidepressant drugs in zebrafish (Danio rerio) eleutheroembryos” (Analytical and Bioanalytical Chemistry, 2021)
Counter-ions that a name gives are not always drawn. Like-named read-outs stand apart in the source and are kept apart here.

What was measured:
[1] = design: method as in earlier work; conditions: ref EPI suite (Experimental database or KOWWIN v1.67) and ChemAxon; cited from earlier work
adult zebrafish = conditions: cited from earlier work
[2] = tested on: Japanese medaka (Oryzias latipes); conditions: cited from earlier work; for average concentration in fish: Japanese medaka exposed to fluoxetine, day 7
zebrafish larvae = conditions: cited from earlier work; for calculated BCFs: individual compounds and mixtures at 5, 10 and 25 μg·L^-1
[3] = tested on: zebrafish (Danio rerio) eleutheroembryos; experiment: Bioconcentration experiment (OECD 305 based), 48 h exposure; assay type: in vivo; conditions: pH 7.8; for BCF48h: Cf(48h)/Cw(48h); for BCFk: k1/k2, first-order one-compartment model, 48 h
Description: Zebrafish eleutheroembryos were cultured from wild-type adult zebrafish bred and maintained in AZTI Zebrafish Facility (REGA ES489010006105) under standard conditions. The OECD 305 technical guidance was used as reference to establish the experimental conditions for growing as well as the nominal concentrations for the contaminants (dissolved oxygen ≥ 60 %, 27°C and pH 7.8 ± 0.2). Exposure solutions were prepared with the composition of fresh river water (ISO 73463 [43]): 220.5 mg of CaCl2, 63 mg of NaHCO3, 5.5 mg of KCl, and 60.1 mg of MgSO4 per liter of distilled water in plastic tanks.
[…]. […] […].
Bioconcentration factor (BCF) was estimated as the ratio between the concentration of the compound in the target organism, at the maximum time of exposure and the mean calculated in the exposure medium (BCF48h). […]
Where Cf is the concentration in fish (ng·g^-1), t is the exposure time (h), k1 is the first-order uptake constant (L·kg^-1·h^-1), Cw is the concentration of the chemical in the exposure media (μg·L^-1), and k2 is the first-order elimination rate constant (h^-1). Assuming a negligible concentration in fish samples at t0 and considering its constant in the exposure medium, the equations can be expressed as: 3 Cfuptake=k1/k2.Cw1−e^−k2t 4 Cfdepuration=Cf,0.e^−k2t
Where Cf,0 denotes the compound concentration in the organism, when the depuration phase starts. Experimental kinetics data were done using the software NONLIN 5.1, which is specific for no linear adjustments (Nashville, TN). BCFs were calculated applying the two procedures, getting BCF48h (Cf (48h) / Cw (48h)) and BCFk (k1/k2) for comparison purposes when steady state is reached.

[4] = tested on: zebrafish (Danio rerio) eleutheroembryos; experiment: SSRI metabolization in eleutheroembryos exposed to the mixture of parent compounds
Description: (§1) […] The concentration of the target analyte was determined in both eleutheroembryos and exposure medium all throughout the experiment.
(§2) Fish roe samples from lumpfish and zebrafish eleutheroembryos: 10 mg of wet weigh (w/w) fortified with a solution containing all tested pharmaceuticals at 240 ng·g^-1 and paroxetine d6 as IS at 100 ng·g^-1 was a mixture with 500 μL of acetonitrile and sonicated with ultrasonic probe at 40% of amplitude for 60 s to assist the extraction of the selected compounds and the mixture was centrifuged. The residue was discarded, and the supernatant was cleaned using 100 mg of C18, vortexed for 30 s, and centrifuged. Acetonitrile was led to evaporation before derivatization and injection to the GC-MS following the same steps as described above.

[5] = as above; conditions: zebrafish (Danio rerio), whole eleutheroembryos (larvae), other: waterborne exposure in exposure medium, pH 7.8, metabolite concentration in eleutheroembryos; for concentration at 6 h: t = 6h; for concentration at 24 h: t = 24h; for concentration at 45 h: t = 45h; for concentration at 48 h: t = 48h
Description: as §1, §2

human liver microsomes = tested on: human liver microsomes; design: method as in PMID 1389950; conditions: citalopram metabolized by cytochrome P450 isozyme to N-desmethylcitalopram; cited from earlier work
[6] = ref SCIfinder; cited from earlier work
[7] = tested on: adult male fathead minnows (Phimephales promelas); conditions: plasma, 3, 11 and 28 ng·L^-1 in water; cited from earlier work
[8] = parent exposure concentration 80 μg·L^-1, t = 6h
[9] = parent exposure concentration 80 μg·L^-1, t = 24h
[10] = parent exposure concentration 80 μg·L^-1, t = 45h
[11] = parent exposure concentration 80 μg·L^-1, t = 48h
[12] = parent exposure concentration 300 μg·L^-1, t = 6h
[13] = parent exposure concentration 300 μg·L^-1, t = 24h
[14] = parent exposure concentration 300 μg·L^-1, t = 45h
[15] = parent exposure concentration 300 μg·L^-1, t = 48h
[16] = parent exposure concentration 80 μg·L^-1
[17] = parent exposure concentration 300 μg·L^-1

In the case of `CNCCC(Oc1ccc(C(F)(F)F)cc1)c1ccccc1` (stereo not shown) [Fluoxetine, Fluoxetine hydrochloride], the Log kow [1] is listed as 4.65, the BCF (adult zebrafish; exposed to 0.9 and 3.20 μg·L^-1) is listed as 20 L/kg and the “average concentration in fish” value [2] is listed as 40.8 ± 5.0 ng·g^-1 w.w. The “kinetic BCF” value ([2]; Japanese medaka, nominal fluoxetine concentration 640 ng·L^-1) was 80, the BCF ([2]; Japanese medaka, pH 7) was 9 L/kg and the BCF ([2]; Japanese medaka, pH 8) was 30 L/kg. For the same compound, the BCF ([2]; Japanese medaka, pH 9) was 260 L/kg, the bioaccumulation (zebrafish larvae; high concentration exposure 5000 μg·L^-1) was 195 and the “calculated BCFs” value (zebrafish larvae) was 94–170. The bioaccumulation (zebrafish larvae; low and moderate concentrations 10–50 μg·L^-1) was “around 30”.
With `N[C@H]1CC[C@@H](c2ccc(Cl)c(Cl)c2)c2ccccc21` [Norsertraline, norsertraline hydrochloride] the BCF48h ([3]; nominal 50 μg·L^-1) was 26.5, the BCFk ([3]; nominal 50 μg·L^-1) was 38 and the “metabolite concentration in eleutheroembryos” value (from here on “metabolite concentration”) [4, 8] was 44.4 ng/g. For the same compound, the “ratio metabolite / parent compound in the larvae” value [4, 8] was 0.17, the “metabolite concentration” value [4, 9] was 504.0 ng/g and the “ratio metabolite / parent compound in the larvae” value [4, 9] was 0.12. For the same compound, the “metabolite concentration” value [4, 10] was 751.8 ng/g, the “ratio metabolite / parent compound in the larvae” value [4, 10] was 0.33 and the “metabolite concentration” value [4, 11] was 731.3 ng/g. The “ratio metabolite / parent compound in the larvae” value [4, 11] was 0.16, the “metabolite concentration” value [4, 12] was 141.4 ng/g and the “ratio metabolite / parent compound in the larvae” value [4, 12] was 0.17. For the same compound, the “metabolite concentration” value [4, 13] was 1228.7 ng/g, the “ratio metabolite / parent compound in the larvae” value [4, 13] was 0.18 and the “metabolite concentration” value [4, 14] was 1968.2 ng/g. The “ratio metabolite / parent compound in the larvae” value [4, 14] was 0.41, the “metabolite concentration” value [4, 15] was 2594.7 ng/g and the “ratio metabolite / parent compound in the larvae” value [4, 15] was 0.47. The Log kow [1] was 4.72.
`CNCCCC1(c2ccc(F)cc2)OCc2cc(C#N)ccc21` (stereo not shown) [Desmethylcitalopram, desmethylcitalopram hydrochloride] showed a BCF48h ([3]; nominal 80 μg·L^-1) of 0.69, a BCF48h ([3]; nominal 300 μg·L^-1) of 0.21 and a BCFk ([3]; nominal 80 μg·L^-1) of 0.7. The BCFk ([3]; nominal 300 μg·L^-1) was 0.35, the concentration at 6 h [5, 16] was 8.9 ng/g and the concentration at 24 h [5, 16] was 10.1 ng/g. The concentration at 45 h [5, 16] was 14.3 ng/g, the concentration at 48 h [5, 16] was 32.3 ng/g and the concentration at 6 h [5, 17] was 118 ng/g. For the same compound, the concentration at 24 h [5, 17] was 297 ng/g, the concentration at 45 h [5, 17] was 203 ng/g and the concentration at 48 h [5, 17] was 123 ng/g. The “ratio metabolite / parent compound in the larvae” value [4, 8] was 0.07, the “ratio metabolite / parent compound in the larvae” value [4, 9] was 0.06 and the “ratio metabolite / parent compound in the larvae” value [4, 10] was 0.15. For the same compound, the “ratio metabolite / parent compound in the larvae” value [4, 11] was 0.54, the “ratio metabolite / parent compound in the larvae” value [4, 12] was 0.47 and the “ratio metabolite / parent compound in the larvae” value [4, 13] was 0.78. For the same compound, the “ratio metabolite / parent compound in the larvae” value [4, 14] was 0.15, the “ratio metabolite / parent compound in the larvae” value [4, 15] was 0.26 and the Log kow [1] was 3.38. The “ratio for the metabolite” value (human liver microsomes) was 5–10 fold and the pKa [6] was 10.54.
For `NCCC(Oc1ccc(C(F)(F)F)cc1)c1ccccc1` (stereo not shown) [Norfluoxetine, norfluoxetine hydrochloride], the pKa [6] is given as 9.05 and the “average concentration in fish” value [2] is given as 64.3 ± 8.7 ng·g^-1 w.w.
In the case of `CN[C@H]1CC[C@@H](c2ccc(Cl)c(Cl)c2)c2ccccc21` [Sertraline, sertraline hydrochloride], the Log kow [1] is listed as 5.29, the bioaccumulation values [7] is listed as “approximately 80” and the BCF (adult zebrafish; exposed to 0.2 and 0.76 μg·L^-1) is listed as 50 to 70 L/kg.
For `Fc1ccc([C@@H]2CCNC[C@H]2COc2ccc3c(c2)OCO3)cc1` [Paroxetine, paroxetine hemihydrate], the Log kow [1] is listed as 3.95, the pKa [6] is listed as 9.90 and the “calculated BCFs” value (zebrafish larvae) is listed as 190–290.
In the case of `CN(C)CCCC1(c2ccc(F)cc2)OCc2cc(C#N)ccc21` (stereo not shown) [Citalopram, citalopram hydrobromide], the Log kow [1] is given as 3.74.
